Laboratory results: patent publication US11369127B2, “Sweetener and flavor compositions, methods of making and methods of use thereof” (EPC Natural Products Co., Ltd., priority 2018, dated 2022)
“Also recorded” adds a separate entry of the source.

Assays:
[1] = Kinetics of reaction in dependence of pH-conditions (degradation of Phe and Reb-A, Gluc, Xyl, Suc by HPLC/MS)
Method: Quantitative evaluation was performed using external standardization.
Kinetics of Reaction in Dependence of pH-Conditions

[2] = Sensory evaluation of GSGs and SGs, Thaumatin, NHDC and combinations (Ex. 255); set-up: species or system human; conditions: in water; 4.5 ppm Thaumatin and/or 50 ppm GSGs and SGs, NHDC 1-5 ppm
Method: 4.5 ppm Thaumatin (equivalent to 10 ppm EPCalin) was dissolved in water. Increasing amounts of NHDC (1-5 ppm) were added to the solution and the sensory properties were evaluated.
50 ppm (GSGs and SGs) were dissolved in water. Increasing amounts of NHDC (1-5 ppm) were added to the solution and the sensory properties were evaluated.
50 ppm (GSGs and SGs) and 4.5 ppm Thaumatin (equivalent to 10 ppm EPCalin) were dissolved in water. Increasing amounts of NHDC (1-5 ppm) were added to the solution and the sensory properties were evaluated.
Sweetness intensity was rated on 5-point scale

[3] = Stevia-derived MRPs with NHDC and Thaumatin, also in Redbull sugarfree (Ex. 261); set-up: species or system human; conditions: 150 μl sample in 100 ml Redbull sugar free
Method: 150 μl of the each sample was added to 100 ml Redbull sugar free and mixed. The taste profiles of the samples were compared. As a control, a RedBull sugar free sample without the addition of Steviaroma was used.
Before tasting the tasters discussed the upcoming series of samples and tasted samples with predetermined attributes with varying intensities to find a commonality in description. Four trained tasters blind taste tested independently all samples of a series. They were allowed to re-taste and made notes for the sensory attributes perceived including the relative intensity.
In the last step the attributes noted were discussed openly to find an acceptable description. In case that more than 1 taster disagreed with the description, the tasting was repeated.

[4] = DPPH radical-scavenging activity (Ex. 65); format: biochemical; conditions: iron-III reduction and DPPH radical scavenging (FIG. 49, 50); 100° C., 0-5 hours
Method: 1 mg 1,1-Diphenyl-2-picrylhydrazyl radical (DPPH)/ml ethanol, dilution to assay concentration were prepared in ethanol (40 μg/mL); Calibration samples were prepared with Ascorbic acid in a concentration of 0-10 μg/mL; as a negative control sample, water was used.
Samples in aqueous solution were used as such or diluted with water.
A 0.1 ml sample (or calibration standard) was mixed with 3.9 ml solution of DPPH (100 μMolar) and reacted while protected from light at room temperature for 30 min. Absorbance was determined at 517 nm against ethanol.
10 mM of amino acid and/or 10 mM sugar were dissolved in 10 ml 0.1 mM KH2PO4-buffer, pH=7.8.
The samples were kept at 100° C. in sealed glass vials (Pyrex 15 ml with screw caps) for 0 (before reaction), 2.5 or 5.0 hours. Thereafter the samples were transferred to an ice water bath and cooled down to room temperature. These samples were diluted 1:10 and used for the test assay for anti-oxidant potential.

Q: Which results are given for `O=C(O)[C@H](Cc1ccccc1)NCC(=O)[C@@H](O)[C@H](O)[C@H](O)CO` [MRI (Phe-Glu)]?
A: % formation from degraded Phe ([1]; pH = 5.5): <0.10%; % formation from degraded Phe ([1]; pH = 7.0): 0.54%; % formation from degraded Phe ([1]; pH = 8.5): 0.84%

Q: Which “sensory properties of combinations with NHDC” value [2] does the source give for `COc1ccc(CCC(=O)c2c(O)cc(O[C@@H]3O[C@H](CO)[C@@H](O)[C@H](O)[C@H]3O[C@@H]3O[C@@H](C)[C@H](O)[C@@H](O)[C@H]3O)cc2O)cc1O` [NHDC, Neohesperidin dihydrochalcone] here?
A: long lasting lingering; also recorded: boosts the lingering

Q: And the “taste profile in sugarfree beverage” value [3]?
A: improved the mouth-feel and harmony of taste impression yielding a substantially improved taste profile

Q: With `C=C1C[C@@]23CC[C@H]4[C@@](C)(CCC[C@@]4(C)C(=O)O[C@@H]4O[C@H](CO)[C@@H](O)[C@H](O)[C@H]4O)[C@@H]2CC[C@]1(O[C@@H]1O[C@H](CO)[C@@H](O)[C@H](O[C@@H]2O[C@H](CO)[C@@H](O)[C@H](O)[C@H]2O)[C@H]1O[C@@H]1O[C@H](CO)[C@@H](O)[C@H](O)[C@H]1O)C3` [Reb-A, Rebaudioside A] as the compound, how does the anti-oxidant properties [4] read?
A: substantial anti-oxidant properties
